From patent US20230121179A1, “SKIN BARRIER FUNCTION ENHANCER” (Shiseido Company, Ltd., priority 2020, published 2023)
Several values for one entry are separate records, joined by “and”; a condition that tells them apart may be missing. Equal entries are not always repeated. Values belong to the molecule of their own block, whether it stands above or below them.

How the values were obtained:
[1] = system: CASP14; test: Microarray gene expression in keratinocytes after UV irradiation through wavelength conversion substance; format: cell-based; design: key: O represents the gene whose expression is significantly changed; X represents the gene whose expression is not changed; settings: Normal Human Epidermal Keratinocytes, UV 100 mJ/cm^2 through wavelength conversion substance solution, no direct contact, 24 h incubation
Source text: (§1) Lumate G is a zinc oxide phosphor obtained by doping ZnO with a sulfur-containing compound and then firing as described in International Patent Publication No. 2018/004006, the absorption spectrum having a peak wavelength at 365 nm and the emission spectrum having a peak wavelength at 510 nm. • (4) Magnesium titanate phosphor Lumate R by Sakai Chemical Industry Co., Ltd. was used. Lumate R is a magnesium titanate phosphor obtained by doping MgTiO3 with manganese, the absorption spectrum having a peak wavelength at 365 nm and the emission spectrum having peak wavelengths in the range of 660 to 680 nm. • The wavelength conversion substances of (1) and (2) were dissolved in water to prepare solutions at concentrations of 1% and 5%. • The wavelength conversion substances of (3) and (4) were dispersed in alcohol to prepare 5% and 10% dispersions.
(§2) Cell samples were prepared in the following manner. • 1. Human human skin keratinocytes (Normal Human Epidermal Keratinocytes, PromoCell) were used. A cell suspension (1 mL) stored with liquid nitrogen was placed in a hot water bath (37° C.) and thawed until small ice pellets remained, and then diluted with 9 mL of warm KGM medium. • 2. The diluted suspension was gently mixed and transferred to a T75 flask, and incubated overnight at 37° C. • 3. On the following day, the medium was exchanged with 10 mL of fresh medium. • 4. The medium was periodically exchanged (once every 2 - 3 days), while continuing growth of the cells. During this time, a microscope was used to observe the cells and to confirm that the cells had proliferated with the proper form. • 5. Once the cells reached approximately 80% confluence, they were subcultured. • 6. Subculturing of the cells was carried out by rinsing and aspirating once in 10 mL of warm PBS. • 7. 5 mL of warm trypsin was added to the T75 flask to cover the bottom of the flask with the trypsin solution, and the mixture was aspirated after standing for 1 minute at room temperature. • 8. The flask was set in an oven at 37° C. for 5 minutes (maximum) for keratinocytes. A microscope was used to observe the cells, confirming that they were small and elliptical. • 9. The sides of the T75 flask were then lightly tapped to free the cells. A microscope was used to observe the cells and confirm that they were freely moving. • 10. The keratinocytes were resuspended in 5 mL of warm trypsin neutralizing solution, transferred to a sterilized 50 mL Falcon tube. The flask was further rinsed with 5 mL of warm FGM and added to the Falcon tube, to ensure transfer of all of the cells. • 11.. The cells were centrifuged at […] for 5 minutes (4° C.), and the supernatant was carefully removed while avoiding disturbing the cell pellet. • 12. The keratinocytes were resuspended in KGM at a concentration of 2 × 10^4 cells/well (500 µL), and plated in collagen coated glass bottom 4-well chamber slide. • 13. The medium was replaced every two or three days, and cells were proliferated until they reached 60 to 70% confluence (differing for the type of experiment). • 14. At 24 hours before irradiation, the medium was changed to non-supplemented medium.
(§3) • 1. At least 30 minutes prior to irradiation, the power source of a solar simulator was activated to warm up the lamp. The solar simulator used was a UG11 filter. A UG11 filter is a filter that allows passage of UVB alone while cutting light of other wavelengths. […] The temperature control plate was turned on and set to 33° C. • 3. The cells prepared in Experiment 1-2 were rinsed once with warm PBS. • 4. A 0.5 mL portion of warmed Martinez solution (145 mM NaCl, 5.5 mM KC1, 1.2 mM MgCl2·6H2O, 1.2 mM NaH2PO4·2H2O, 7.5 mM HEPES, 1 mM CaCl2 and 10 mM D-glucose) was added to each well. • 5. […] The irradiation was carried out to a total radiation dose of 100 mJ/cm^2. […]

[2] = system: CDSN; test: as above; format: cell-based; design: key: O represents the gene whose expression is significantly changed; X represents the gene whose expression is not changed; settings: Normal Human Epidermal Keratinocytes, UV 100 mJ/cm^2 through wavelength conversion substance solution, no direct contact, 24 h incubation
Source text: as §1, §2, §3

[3] = system: FLG; test: as above; format: cell-based; design: key: O represents the gene whose expression is significantly changed; X represents the gene whose expression is not changed; settings: Normal Human Epidermal Keratinocytes, UV 100 mJ/cm^2 through wavelength conversion substance solution, no direct contact, 24 h incubation
Source text: as §1, §2, §3

[4] = system: INV; test: as above; format: cell-based; design: key: O represents the gene whose expression is significantly changed; X represents the gene whose expression is not changed; settings: Normal Human Epidermal Keratinocytes, UV 100 mJ/cm^2 through wavelength conversion substance solution, no direct contact, 24 h incubation
Source text: as §1, §2, §3

[5] = system: LOR; test: as above; format: cell-based; design: key: O represents the gene whose expression is significantly changed; X represents the gene whose expression is not changed; settings: Normal Human Epidermal Keratinocytes, UV 100 mJ/cm^2 through wavelength conversion substance solution, no direct contact, 24 h incubation
Source text: as §1, §2, §3

[6] = system: SMPD1; test: as above; format: cell-based; design: key: O represents the gene whose expression is significantly changed; X represents the gene whose expression is not changed; settings: Normal Human Epidermal Keratinocytes, UV 100 mJ/cm^2 through wavelength conversion substance solution, no direct contact, 24 h incubation
Source text: as §1, §2, §3

[7] = system: TGase1; test: as above; format: cell-based; design: key: O represents the gene whose expression is significantly changed; X represents the gene whose expression is not changed; settings: Normal Human Epidermal Keratinocytes, UV 100 mJ/cm^2 through wavelength conversion substance solution, no direct contact, 24 h incubation
Source text: as §1, §2, §3

[8] = Absorption and emission spectra of wavelength conversion substances; format: physicochemical
Source text: as §1

absorption spectrum peak wavelength [8]: 445 nm
emission spectrum peak wavelength [8]: 530 nm
Molecule: Cc1cc2nc3c(=O)[nH]c(=O)nc-3n(C[C@H](O)[C@H](O)[C@H](O)CO)c2cc1C [Vitamin B2, Riboflavin, reference compound]
CASP14 gene expression change [1]: O
CDSN gene expression change [2]: O
FLG gene expression change [3]: O
INV gene expression change [4]: O
LOR gene expression change [5]: X
SMPD1 gene expression change [6]: O
TGase1 gene expression change [7]: O

Molecule: C-phycocyanin [Lina Blue]
CASP14 gene expression change [1]: O
CDSN gene expression change [2]: O
FLG gene expression change [3]: O
INV gene expression change [4]: O
LOR gene expression change [5]: O
SMPD1 gene expression change [6]: O
TGase1 gene expression change [7]: O
absorption spectrum peak wavelength [8]: 350 nm
emission spectrum peak wavelength [8]: 640 nm and 700 nm
